Test results: ChEMBL document CHEMBL1136129, “Design and synthesis of poly(ADP-ribose)polymerase-1 (PARP-1) inhibitors. Part 3: In vitro evaluation of 1,3,4,5-tetrahydro-benzo[c][1,6]- and [c][1,7]-naphthyridin-6-ones” (Bioorg Med Chem Lett, 2003)

Assays:
[1] = target: Poly [ADP-ribose] polymerase 1 (Homo sapiens, UniProt P09874); assay: Inhibition of human recombinant Poly (ADP-ribose) polymerase 1
[2] = Effective concentration was determined from in vitro cellular peroxide toxicity assay; format: functional

Sequence of Poly [ADP-ribose] polymerase 1 (P09874 whole entry): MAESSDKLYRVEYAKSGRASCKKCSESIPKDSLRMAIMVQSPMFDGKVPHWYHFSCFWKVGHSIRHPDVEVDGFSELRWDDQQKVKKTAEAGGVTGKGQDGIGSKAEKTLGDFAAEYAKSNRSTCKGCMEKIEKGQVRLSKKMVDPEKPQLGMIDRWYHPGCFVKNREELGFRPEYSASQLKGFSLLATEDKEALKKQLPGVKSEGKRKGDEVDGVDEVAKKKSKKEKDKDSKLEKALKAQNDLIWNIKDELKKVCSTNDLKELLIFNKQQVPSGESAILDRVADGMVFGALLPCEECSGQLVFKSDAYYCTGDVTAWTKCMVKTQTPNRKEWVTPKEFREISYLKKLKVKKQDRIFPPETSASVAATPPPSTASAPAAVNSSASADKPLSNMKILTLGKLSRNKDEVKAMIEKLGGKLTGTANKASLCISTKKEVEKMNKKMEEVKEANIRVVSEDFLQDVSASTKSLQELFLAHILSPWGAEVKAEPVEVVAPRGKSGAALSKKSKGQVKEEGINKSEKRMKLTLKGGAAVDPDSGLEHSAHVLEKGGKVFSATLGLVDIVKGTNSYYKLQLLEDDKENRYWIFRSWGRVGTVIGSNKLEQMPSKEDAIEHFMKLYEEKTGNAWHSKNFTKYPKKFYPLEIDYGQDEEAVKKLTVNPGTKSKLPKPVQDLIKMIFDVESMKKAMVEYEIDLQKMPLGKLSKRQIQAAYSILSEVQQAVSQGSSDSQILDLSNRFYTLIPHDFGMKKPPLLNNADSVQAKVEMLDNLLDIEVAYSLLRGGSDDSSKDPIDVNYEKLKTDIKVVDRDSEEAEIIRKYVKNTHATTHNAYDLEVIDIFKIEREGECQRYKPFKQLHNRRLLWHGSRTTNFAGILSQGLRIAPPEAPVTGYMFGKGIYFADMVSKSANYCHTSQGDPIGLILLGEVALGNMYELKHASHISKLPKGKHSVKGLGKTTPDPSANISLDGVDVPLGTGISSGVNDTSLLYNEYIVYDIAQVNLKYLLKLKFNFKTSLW

SMILES | IC50 [1] [nM] | EC50 [2] [nM]
O=C(CCN1CCCCC1)N1CCc2c(nc(O)c3ccccc23)C1 | 240 | 
N[C@@H](CCC(=O)N1CCc2nc(O)c3ccccc3c2C1)C(=O)O | 89 | 30000
O=C([C@@H]1CCCN1)N1CCc2c(nc(O)c3ccccc23)C1 | 31 | 100
O=C(CN1CCN(C2CCCC2)CC1)N1CCc2c(nc(O)c3ccccc23)C1 | 116 | 690
O=c1[nH]c2c(c3ccccc13)CCN(S(=O)(=O)CCN1CCCCC1)C2 | 376 | 2790
O=C(CCN1CCC(N2CCCC2)CC1)N1CCc2c(nc(O)c3ccccc23)C1 | 243 | 
Oc1nc2c(c3ccc(F)cc13)CNCC2 | 20 | 40
O=c1[nH]c2c(c3ccccc13)CN(S(=O)(=O)CCN1CCC(N3CCCC3)CC1)CC2 | 357 | 
Oc1nc2c(c3ccccc13)CCNC2 | 30 | 45
O=S(=O)(CCN1CCC(N2CCCC2)CC1)N1CCc2c(nc(O)c3ccccc23)C1 | 349 | 1780
Oc1nc2c(c3ccccc13)CCCC2 | 167 | 
O=C(CCN1CCCCC1)N1CCc2[nH]c(=O)c3cc(F)ccc3c2C1 | 25 | 30
O=C(CN1CCCCC1)N1CCc2nc(O)c3ccccc3c2C1 |  | 60
O=C(CCN1CCC(N2CCCC2)CC1)N1CCc2nc(O)c3cc(F)ccc3c2C1 | 32 | 610
O=C(CCN1CCCCC1)N1CCc2nc(O)c3ccccc3c2C1 |  | 58
O=C(CN1CCCCC1)N1CCc2c(nc(O)c3ccccc23)C1 |  | 260
Oc1nc2c(c3ccccc13)CNCC2 |  | 40
O=C(CN1CCC(N2CCCC2)CC1)N1CCc2nc(O)c3ccccc3c2C1 | 185 | 850
